Assay results as given in US9861680B2, “Immunomodulators” (BRISTOL-MYERS SQUIBB COMPANY, priority 2014, dated 2018).
Numbered stars: 1 amine (or outer) side, 2 acyl side, 3 side chain; on linkers, the order of the positions; unused ones are H or OH. Bridge positions count the residues as written; N and C are the ends. Square brackets hold non-standard residues; d marks the D form. Peptide text beside a SMILES is read from it. X8 = C[C@@H](C(=O)[*:2])N(CCC(F)(F)F)[*:1]; X1 = O=C(CN(CCC(F)(F)F)[*:1])[*:2]; Hyp = O=C(O)[C@@H]1C[C@@H](O)CN1; Gly(N-CH2CH2OH) = O=C(O)CNCCO; NMeNle = CCCC[C@H](NC)C(=O)O; NMeA = CN[C@@H](C)C(=O)O; Dab = NCC[C@H](N)C(=O)O

Biological target: T1, PD-1-Ig binding to PD-L1-TVMV-His (PD-L1-His) (Homo sapiens, UniProt Q9NZQ7)
T1 construct: hPDL1(19-239)-TVMV-His; made in house; host or cells: HEK293T
T1 sequence (Q9NZQ7 with tags, fused parts or gaps): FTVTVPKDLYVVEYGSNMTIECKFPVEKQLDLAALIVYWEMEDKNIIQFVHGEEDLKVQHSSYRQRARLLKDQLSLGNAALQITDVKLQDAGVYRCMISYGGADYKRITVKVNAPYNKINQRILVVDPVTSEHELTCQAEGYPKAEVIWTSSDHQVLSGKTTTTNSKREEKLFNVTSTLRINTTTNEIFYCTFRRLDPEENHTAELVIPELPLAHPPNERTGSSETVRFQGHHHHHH
Assay: PD-1/PD-L1 Homogenous Time-Resolved Fluorescence (HTRF) binding assay
Conditions: range class; PD-L1-His 10 nM, PD-1-Ig 20 nM
How it was run: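 Compound was pre-incubated 15 min with PD-L1-His (10 nM final; human, cynomolgus, mouse or other species), then PD-1-Ig (20 nM final) was added for a further 15 min. Detection used Eu-cryptate anti-Ig (1 nM) and APC anti-His (20 nM), read after 30 min as the HTRF 665/620 nm ratio. Buffer was dPBS, 0.1% BSA, 0.05% Tween-20.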

IC50 [nM]	SMILES
10 to 99	CCCC[C@H]1C(=O)N[C@@H](CC(C)C)C(=O)N[C@H](C(=O)NCC(N)=O)CSCC(=O)N[C@@H](Cc2ccc(O)cc2)C(=O)N(C)[C@@H](C)C(=O)N[C@@H](CC(N)=O)C(=O)N2CCC[C@H]2C(=O)N[C@@H](Cc2cnc[nH]2)C(=O)N[C@@H](CCC(=O)O)C(=O)N2C[C@H](O)C[C@H]2C(=O)N[C@@H](Cc2c[nH]c3ccccc23)C(=O)N[C@@H](CCN)C(=O)N[C@@H](Cc2c[nH]c3ccccc23)C(=O)N(CCC(F)(F)F)[C@@H](C)C(=O)N1C [Example 3041] ({CH2CO}-Y[NMeA]NPHE[Hyp]W[Dab]W[X8][NMeNle]LCG-NH2; thioether N-14)
10 to 99	CCCC[C@H]1C(=O)N(C)[C@@H](CCCC)C(=O)N[C@@H](CC(C)C)C(=O)N[C@H](C(=O)NCC(N)=O)CSCC(=O)N[C@@H](Cc2ccc(O)cc2)C(=O)N(CC(=O)O)CC(=O)N[C@@H](CC(N)=O)C(=O)N2CCC[C@H]2C(=O)N[C@@H](Cc2cnc[nH]2)C(=O)N[C@@H](CCC(=O)O)C(=O)N2C[C@H](O)C[C@H]2C(=O)N[C@@H](Cc2c[nH]c3ccccc23)C(=O)N[C@@H](CCN)C(=O)N[C@@H](Cc2c[nH]c3ccccc23)C(=O)N1C [Example 3044]
10 to 99	CCCC[C@H]1C(=O)N(C)[C@@H](CCCC)C(=O)N[C@@H](CC(C)C)C(=O)N[C@H](C(=O)NCC(N)=O)CSCC(=O)N[C@@H](Cc2ccc(O)cc2)C(=O)N(CCO)CC(=O)N[C@@H](CC(N)=O)C(=O)N2CCC[C@H]2C(=O)N[C@@H](Cc2cnc[nH]2)C(=O)N[C@@H](CCC(=O)O)C(=O)N2C[C@H](O)C[C@H]2C(=O)N[C@@H](Cc2c[nH]c3ccccc23)C(=O)N[C@@H](CCN)C(=O)N[C@@H](Cc2c[nH]c3ccccc23)C(=O)N1C [Example 3045] ({CH2CO}-Y[Gly(N-CH2CH2OH)]NPHE[Hyp]W[Dab]W[NMeNle][NMeNle]LCG-NH2; thioether N-14)
10 to 99	CCCC[C@H]1C(=O)N(C)[C@@H](CCCC)C(=O)N[C@@H](CC(C)C)C(=O)N[C@H](C(=O)NCC(N)=O)CSCC(=O)N[C@@H](Cc2ccc(O)cc2)C(=O)N(CCC(F)(F)F)CC(=O)N[C@@H](CC(N)=O)C(=O)N2CCC[C@H]2C(=O)N[C@@H](Cc2cnc[nH]2)C(=O)N[C@@H](CCC(=O)O)C(=O)N2C[C@H](O)C[C@H]2C(=O)N[C@@H](Cc2c[nH]c3ccccc23)C(=O)N[C@@H](CCN)C(=O)N[C@@H](Cc2c[nH]c3ccccc23)C(=O)N1C [Example 3046] ({CH2CO}-Y[X1]NPHE[Hyp]W[Dab]W[NMeNle][NMeNle]LCG-NH2; thioether N-14)
5 to 9.9	CCCC[C@H]1C(=O)N(C)[C@@H](CCCC)C(=O)N[C@@H](CC(C)C)C(=O)N[C@H](C(=O)NCC(N)=O)CSCC(=O)N[C@@H](Cc2ccc(O)cc2)C(=O)N(C)[C@@H](C)C(=O)N[C@@H](CC(N)=O)C(=O)N2CCC[C@H]2C(=O)N[C@@H](Cc2c[nH]cn2)C(=O)N[C@@H](CCC(=O)O)C(=O)N(CC(=O)O)CC(=O)N[C@@H](Cc2c[nH]c3ccccc23)C(=O)N[C@@H](CCN)C(=O)N[C@@H](Cc2csc3ccccc23)C(=O)N1C [Example 5001]
5 to 9.9	CCCC[C@H]1C(=O)N(C)[C@@H](CCCC)C(=O)N[C@@H](CC(C)C)C(=O)N[C@H](C(=O)NCC(N)=O)CSCC(=O)N[C@@H](Cc2ccc(O)cc2)C(=O)N(C)[C@@H](C)C(=O)N[C@@H](CC(N)=O)C(=O)N(CC(=O)O)CC(=O)N[C@@H](Cc2c[nH]cn2)C(=O)N[C@@H](CCC(=O)O)C(=O)N2C[C@H](O)C[C@H]2C(=O)N[C@@H](Cc2c[nH]c3ccccc23)C(=O)N[C@@H](CCN)C(=O)N[C@@H](Cc2csc3ccccc23)C(=O)N1C [Example 5002]
10 to 99	CCCC[C@H]1C(=O)N(C)[C@@H](CCCC)C(=O)N[C@@H](CC(C)C)C(=O)N[C@H](C(=O)NCC(N)=O)CSCC(=O)N[C@@H](Cc2ccc(O)cc2)C(=O)N(CC(=O)O)CC(=O)N[C@@H](CC(N)=O)C(=O)N2CCC[C@H]2C(=O)N[C@@H](Cc2cnc[nH]2)C(=O)N[C@@H](CCC(=O)O)C(=O)N2C[C@H](O)C[C@H]2C(=O)N[C@@H](Cc2c[nH]c3ccccc23)C(=O)N[C@@H](CCN)C(=O)N[C@@H](Cc2csc3ccccc23)C(=O)N1C [Example 5003]
